In brackets after ≈: the same amount, converted by molar mass. Several values for one entry are separate records, joined by “and”; a condition that tells them apart may be missing. Equal entries are not always repeated.
Experiments:
[1] = system: CckA from Caulobacter crescentus; set-up: method as in PMID 29110989; details: cited from earlier work
[2] = system: PhoQ from Salmonella typhimurium; set-up: method as in PMID 29110989; details: cited from earlier work
[3] = system: Enterococcus faecalis vanA (strain E0155); experiment: MIC (microdilution) against E. faecalis; format: cell-based; details: Enterococcus faecalis, read-out: MIC E. faecalis
Description: (§1) Staphylococcus aureus str. Newman, Enterococcus faecalis vanA (strain E0155), Enterococcus faecium vanA (strain E1654), Escherichia coli ATCC 25922, Escherichia coli D21f2 with a truncated LPS barrier, Escherichia coli JW5503 (ΔtolC) ([49]), Pseudomonas aeruginosa ATCC 27853, and Pasteurella haemolytica ATCC 29701 were grown in Mueller-Hinton Broth (MHB) (Oxoid, Basingstoke, UK) and incubated at 37°C.
(§2) The minimal inhibitory concentration was determined using the microdilution method following the guidelines of the European Committee on Antimicrobial Susceptibility Testing ([50]). Briefly, a series of twofold dilutions in MHB of each compound were made in a 96-well plate, with final concentrations ranging from 50 to 0.39 µg/mL in 100 µL final volume per well. A hundred microliters of 1:100 dilution of an overnight culture of the correspondent bacteria in MHB was added to each well. Plates were incubated for 18 hours at 37°C. MIC was recorded as the lowest concentration where no growth was detected as measured by optical density at 600 nm (OD600) using Spectramax M5 (Molecular Devices LLC, San Jose, CA, USA). […] Wells containing bacteria with or without 1% DMSO and medium alone were included as controls in every plate.

[4] = system: Escherichia coli ATCC 25922; experiment: MIC (microdilution) against E. coli; format: cell-based; details: Escherichia coli, ATCC25922; Table ST1; read-out: MIC E. coli
Description: as §1, §2

HEK293 cells [5] = experiment: in vitro; format: cell-based; details: for Selectivity Index: LC50/MIC (HEK293 / S. aureus); for LC20: human, 24 h
Description: (§3) HEK293 cells and the human hepatocellular carcinoma cells (HepG2) were routinely cultured in 75-cm^2 culture flasks (Corning Incorporated) on high-glucose Dulbecco’s modified Eagle medium (DMEM) containing glutaMax and phenol red (Gibco) supplemented with 1% penicillin/streptomycin (Gibco) and 10% fetal bovine serum (FBS) (Gibco). Cells were maintained at 37°C and 5% CO2.
(§4) Cytotoxicity assays with HEK293 and HepG2 cells were performed in 96-well plates seeded with 5 × 10^4 cells/well and incubated for 24 hours to reach 80%–90% confluency. Exterior wells were filled with only medium to prevent evaporation. Culture medium was removed from the cells, and 100 µL of exposure medium [high-glucose DMEM without phenol red (Gibco)] was added to avoid a potential interaction between FBS components or antibiotics and tested compounds. A twofold dilution series of compounds in exposure medium (range 100–3.2 μg/mL) was made in a separate 96-well plate, and 100 µL of each of these dilutions was added to the assay plates for 24 hours at 37°C in the presence of 5% CO2. Control wells contained cells with DMEM, DMEM + 1% DMSO (vehicle control), or DMEM + 20% DMSO. Wells without cells were also included as negative control. After exposure, the medium was replaced with 100 µL 10% Alamar Blue (Invitrogen) in exposure medium. After 45 min incubation at 37°C and 5% CO2, fluorescence was measured on a Spectramax M5 plate reader at λex = 541 nm, λem = 590 nm. Cell viability compared with the vehicle control was calculated, and inhibition curves for each compound were fitted (non-linear curve fit, four variables, bottom constrained = 0) in Prism 9 (GraphPad Software, San Diego, USA).

in vitro = format: cell-based; details: human
Description: as §3, §4

[6] = system: Pseudomonas aeruginosa ATCC 27853; experiment: MIC (microdilution) against P. aeruginosa; format: cell-based; details: Pseudomonas aeruginosa, ATCC27853; Table ST1; read-out: MIC P. aeruginosa
Description: as §1, §2

S. aureus str. Newman = experiment: Membrane permeability using SYTOX-Green, flow cytometry; format: cell-based; details: for % FITC stained bacteria 0.5 xMIC: 0.5× MIC; for % FITC stained bacteria 0.5 xMIC / % FITC stained bacteria 1 xMIC / % FITC stained bacteria 2 xMIC: 5 min exposure; for % FITC stained bacteria 1 xMIC: 1× MIC; for % FITC stained bacteria 2 xMIC: 2× MIC; for Membrane damage: if considered to cause membrane damage to S. aureus
Description: S. aureus str. Newman was grown to exponential phase (OD600 = 0.4) in MHB media. […] Nisin (Sigma-Aldrich) and novobiocin (Sigma-Aldrich) were used as positive and negative controls for membrane permeabilization, and stained and unstained untreated controls were also included in each assay. After exposure, samples were centrifuged at 4,000 r.p.m. for 5 min and resuspended in PBS. Bacteria were dyed by adding the fluorescent nuclear stain SYTOX Green (Molecular Probes, Invitrogen) to a final concentration of 0.5 µM and incubating for 5 min in the dark. Samples were centrifuged again and resuspended with PBS to remove unbound stain. Three hundred microliters of each sample was transferred to a clean well in a 96-well clear-bottom plate (Corning Incorporated). Fluorescence was measured in CytoFLEX flow cytometer (Beckman Coulter, Brea, CA, USA) using the green (FITC) channel with the excitation wavelength at 488 nm. Overlay histograms were created with CytExpert Software (Beckman Coulter, Brea, CA, USA).

[7] = system: Enterococcus faecium vanA (strain E1654); experiment: MIC (microdilution) against E. faecium; format: cell-based; details: Enterococcus faecium, read-out: MIC E. faecium
Description: as §1, §2

sheep red blood cells = experiment: Haemolysis assay; format: cell-based; details: for Haemolysis: if considered to cause haemolysis to red blood cells
Description: The hemolysis assay was adapted from the study by Evans et al. ([65]). Briefly, sheep RBC 10% washed pooled cells in PBS (Rockland Immunochemicals, Limerick, PA, USA) were diluted 1:5 to give a final concentration of 2% RBCs in PBS. […] A non-treated control, 1% DMSO (vehicle control), and complete cell lysis control (Triton-X 2%) were included in each assay. After exposure samples were centrifuged at 4°C at 1,000 g for 15 min and 100 µL of supernatant transferred to a clean well in a 96-well, clear, flat-bottom plate (Corning Incorporated). Released hemoglobin was measured by absorption at 540 nm using a Spectramax M5 plate reader. The experiments were performed in quadruplicate. The percentage of hemolysis was calculated as follows:
Hemolysis=A540nm,testcondition−A540nm,DMSOcontrol/A540nm,TritonXControl−A540nm,DMSOcontrol

[8] = system: Pasteurella haemolytica ATCC 29701; experiment: MIC (microdilution) against P. haemolytica; format: cell-based; details: Mannheimia haemolytica, ATCC29701, read-out: MIC P. haemolytica, Table ST1
Description: as §1, §2

[9] = system: Escherichia coli JW5503 (ΔtolC); experiment: MIC (microdilution) against E. coli JW5503; format: cell-based; details: Escherichia coli, read-out: MIC E. coli JW5503
From the text: (§5) We also tested the inhibitory activity of compounds in two different E. coli mutants: (i) E. coli JW5503 that lacks TolC efflux pumps and (ii) E. coli D21f2 that has a defective LPS inner core increasing permeability of the outer membrane. E. coli D21f2 has a slightly higher susceptibility to DPP compounds than E. coli ATCC25922.
as §1, §2

[10] = system: Staphylococcus aureus str. Newman; experiment: Minimal inhibitory concentration (microdilution) against S. aureus; format: cell-based; details: for MIC S. aureus: Table ST3
Description: as §1, §2

[11] = system: Escherichia coli D21f2 with a truncated LPS barrier; experiment: MIC (microdilution) against E. coli D21f2; format: cell-based; details: read-out: MIC E coli D21f2
From the text: as §5, §1, §2

HEK293 cells [12] = experiment: Cell imaging of HEK293 cells; format: cell-based; details: for cells in G2/M phase: HEK293, LC20, 24 hours exposure, DMSO control 2.68% ± 1.31%; for Morphological changes of HEK293 cells: LC20, 24 hours exposure, 40× amplification
Description: HEK293 cells were plated in 24-well plates on exposure medium for 24 hours (500,000 cells/well). Cells were exposed to a subset of compounds at a lethal concentration of 20% (LC20). After 24 hours exposure, cells were fixed with 2% glutaraldehyde for 15 min, washed with water, permeabilized with 0.5% Triton-X, washed twice with water, and stained with Toluidine blue 0.3%. For 100× amplification, cells were harvested by pipetting up and down in 250 µL of exposure medium. Cells from three wells treated with the same compound were pooled and centrifuged for 5 min at 1,500 r.p.m. The cell pellet was fixed in 0.1 M cacodylate buffer containing 2% glutaraldehyde (vol/vol) (pH 7.4). After 1 hour on ice, the pellet was washed with 0.1 M cacodylate buffer and fixed in 0.1 M cacodylate buffer containing 1% osmium tetroxide (wt/vol). After a further hour on ice, the cell pellet was embedded in hard Epon and 1-µm slides were cut and stained with 1% toluidine blue and 1% borax (wt/vol). Cell abnormalities were assessed by microscopy using a Leica DM6B light microscope (Leica Microsystems B.V., Amsterdam, the Netherlands) at 100× magnification.

[13] = Staphylococcus aureus, NEWMAN, Fig 2
[14] = Staphylococcus aureus, NEWMAN, Fig 2, value in parentheses
[15] = Table ST3, value in parentheses

SMILES | IC50 [1] | IC50 [2] | MIC [3] | MIC [4] | Selectivity Index (HEK293 cells [5]) | CC50 at 24 h (in vitro) | MIC [6] | % FITC stained bacteria 0.5 xMIC (S. aureus str. Newman) | % FITC stained bacteria 1 xMIC (S. aureus str. Newman) | % FITC stained bacteria 2 xMIC (S. aureus str. Newman) | Membrane damage (S. aureus str. Newman) | MIC [7] | Haemolysis (sheep red blood cells) | MIC [8] | MIC [9] | MIC [10, 13] | MIC [10, 14] | MIC S. aureus [10] | MIC [10, 15] | MIC [11] | further results
COc1ccc(-c2c(-c3cc(Cl)c(O)cc3O)n[nH]c2C)cc1 [Compound 5b] | 14 µM | 238 µM | – | – | – | – | – | – | – | – | – | – | – | – | – | – | – | – | – | – | –
Oc1ccc(-c2onc(C(F)(F)F)c2-c2ccc(Cl)cc2)c(O)c1 [DPP-11] | – | – | 12.5 µg/mL (≈ 35.1 µM) | > 250 µg/mL | 1.10 | 3.41 µg/mL and 9.61 µM | > 250 µg/mL | 24.77% | 28.12% | 57.97% | YES | 12.5 µg/mL (≈ 35.1 µM) | YES | 62.5 µg/mL (≈ 176 µM) | 1.56 µg/mL (≈ 4.39 µM) | 3.12 µg/mL | 8.76 µM | 3.12 µg/mL (≈ 8.77 µM) | 8.76 µM | 25 µg/mL (≈ 70.3 µM) | –
CCc1cc(-c2n[nH]c(C)c2-c2ccc3c(c2)OCCO3)c(O)cc1O [CCT018159] | 30 µM | 261 µM | – | – | – | – | – | – | – | – | – | – | – | – | – | – | – | – | – | – | –
Oc1cc(OCc2ccccc2)ccc1-c1[nH]nc(C(F)(F)F)c1-c1ccc(Cl)cc1 [DPP-8] | – | – | 1.56 µg/mL (≈ 3.51 µM) | > 250 µg/mL | 9.14 | 14.2 µg/mL and 32 µM | > 250 µg/mL | 12.26% | 32.15% | 36.10% | YES | 3.12 µg/mL (≈ 7.01 µM) | YES | 250 µg/mL (≈ 562 µM) | 12.5 µg/mL (≈ 28.1 µM) | 1.56 µg/mL | 3.51 µM | 1.56 µg/mL (≈ 3.51 µM) | 3.51 µM | 25 µg/mL (≈ 56.2 µM) | –
CCOc1ccc(-c2[nH]nc(C(F)(F)F)c2-c2ccc(OC)c(OC)c2)c(O)c1 [DPP-20] | – | – | 25 µg/mL (≈ 61.2 µM) | > 250 µg/mL | 1.32 | 16.5 µg/mL and 40.3 µM | > 250 µg/mL | 31.90% | 40.99% | 50.97% | YES | 25 µg/mL (≈ 61.2 µM) | – | > 250 µg/mL | 6.25 µg/mL (≈ 15.3 µM) | 12.5 µg/mL | 30.5 µM | 12.5 µg/mL (≈ 30.6 µM) | 30.49 µM | – | LC20 (HEK293 cells [5]): 3 µg/mL (≈ 7.35 µM); RBC hemolysis (sheep red blood cells): not hemolytic; cells in G2/M phase (HEK293 cells [12]): 26.25% ± 4.68%; Morphological changes of HEK293 cells (HEK293 cells [12]): no morphological changes
CCOc1ccc(-c2[nH]nc(C(F)(F)F)c2-c2ccc(OC)cc2)c(O)c1 [DPP-14] | – | – | 12.5 µg/mL (≈ 33 µM) | > 250 µg/mL | 1.05 | 6.57 µg/mL and 17.3 µM | > 250 µg/mL | 28.78% | 44.58% | 56.62% | YES | 12.5 µg/mL (≈ 33 µM) | – | > 250 µg/mL | 3.13 µg/mL (≈ 8.27 µM) | 6.25 µg/mL | 16.4 µM | 6.25 µg/mL (≈ 16.5 µM) | 16.45 µM | – | LC20 (HEK293 cells [5]): 3 µg/mL (≈ 7.93 µM); RBC hemolysis (sheep red blood cells): not hemolytic; cells in G2/M phase (HEK293 cells [12]): 12.24% ± 1.23%; Morphological changes of HEK293 cells (HEK293 cells [12]): no morphological changes
